Assay [1] deals with SKBR3 (PI3Kα-Wild Type) cell line. The experiment in a line: HTRF phospho-AKT(S473) cell assay in SKBR3 cells. The class given is cell-based, human. The note with it: Homo sapiens, SK-BR-3; HTRF phospho-AKT(S473), SKBR3 (PI3Kα-Wild Type) cells, 2 hours compound incubation, PDGF-BB stimulated. Put shortly:
(§1)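 HTRF read-out of phospho-AKT(S473) in lysates gave IC50 values after 2 h compound exposure at 37° C. Dose series was 12 points at 1:3, topping at 5 μM for T47D and 10 μM for SKBR3. Only SKBR3 received 70 ng/ml PDGF-BB during the last 15 minutes.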
Background: Time-resolved FRET reads energy transfer from a long-lived donor to a nearby acceptor.

Assay [2] has as its system T47D (PI3Kα-H1047R) cell line. The assay is described as follows: HTRF phospho-AKT(S473) cell assay in T47D cells. The conditions noted are these: Homo sapiens; HTRF phospho-AKT(S473), T47D (PI3Kα-H1047R) cells, 2 hours compound incubation. The class given is cell-based, human. Put shortly: as §1

Data on 19 molecules can be found in US12281122B1, “PI3K inhibitors” (Cogent Biosciences, Inc., priority 2023, dated 2025).

pIC50: −log10 of the molar value. Bounds are passed on as bounds.

For `Cc1cc([C@@H](C)Nc2ccc(Cl)nc2C(=O)NS(C)(=O)=O)c2nc(N3C[C@@H]4[C@H](C3)[C@H]4c3nnc(C)o3)n(C)c(=O)c2c1` [Compound 654, 6-chloro-3-(((R)-1-(3,6-dimethyl-2-((1R,5S,6R)-6-(5-methyl-1,3,4-oxadiazol-2-yl)-3-azabicyclo[3.1.0]hexan-3-yl)-4-oxo-3,4-dihydroquinazolin-8-yl)ethyl)amino)-N-(methylsulfonyl) picolinamide], the pIC50 is 5.30 to 6.00 in assay [1] and greater than 6.60 in assay [2].
For `[2H]C([2H])([2H])n1nc([C@H]2[C@@H]3CN(c4nc5c([C@@H](C)Nc6ccc(Cl)nc6C(=O)NS(C)(=O)=O)cc(C)cc5c(=O)n4C)C[C@@H]32)c(Cl)c1C` [Compound 661, 6-chloro-3-(((R)-1-(2-((1R,5S,6R)-6-(4-chloro-5-methyl-1-(methyl-d3)-1H-pyrazol-3-yl)-3-azabicyclo[3.1.0]hexan-3-yl)-3,6-dimethyl-4-oxo-3,4-dihydroquinazolin-8-yl)ethyl)amino)-N-(methylsulfonyl) picolinamide], in that order: no more than 5.30 and 6.30 to 6.60.
The like results for `Cc1cc([C@@H](C)Nc2ccc(Cl)nc2C(=O)NS(C)(=O)=O)c2nc(N3CCN(c4ncccc4F)CC3)n(C)c(=O)c2c1` [Compound 662, (R)-6-chloro-3-((1-(2-(4-(3-fluoropyridin-2-yl)piperazin-1-yl)-3,6-dimethyl-4-oxo-3,4-dihydroquinazolin-8-yl)ethyl)amino)-N-(methylsulfonyl) picolinamide] were, in that order, no more than 5.30 and 6.30 to 6.60.
For `Cc1ccc(N2C[C@@H]3C[C@H]2CN3c2nc3c([C@@H](C)Nc4ccc(Cl)nc4C(=O)NS(C)(=O)=O)cc(C)cc3c(=O)n2C)nc1` [Compound 663, 6-chloro-3-(((R)-1-(3,6-dimethyl-2-((1S,4S)-5-(5-methylpyridin-2-yl)-2,5-diazabicyclo [2.2.1]heptan-2-yl)-4-oxo-3,4-dihydroquinazolin-8-yl)ethyl)amino)-N-(methylsulfonyl) picolinamide], in that order: less than 5.30 and 6.00 to 6.30.
`Cc1cc([C@@H](C)Nc2ccc(Cl)nc2C(=O)NS(C)(=O)=O)c2nc(N3C[C@H]4C[C@@H]3CN4c3cnc(C)c(F)c3)n(C)c(=O)c2c1` [Compound 664, 6-chloro-3-(((R)-1-(2-((1R,4R)-5-(5-fluoro-6-methylpyridin-3-yl)-2,5-diazabicyclo [2.2.1]heptan-2-yl)-3,6-dimethyl-4-oxo-3,4-dihydroquinazolin-8-yl)ethyl)amino)-N-(methylsulfonyl) picolinamide]: the pIC50 in assay [1] is no more than 5.30; in assay [2], 6.00 to 6.30.
For `Cc1cc([C@@H](C)Nc2ccc(Cl)nc2C(=O)NS(C)(=O)=O)c2nc(N3C[C@@H]4[C@H](C3)[C@H]4c3cc(C)on3)n(C)c(=O)c2c1` [Compound 665, 6-chloro-3-(((R)-1-(3,6-dimethyl-2-((1R,5S,6R)-6-(5-methylisoxazol-3-yl)-3-azabicyclo[3.1.0]hexan-3-yl)-4-oxo-3,4-dihydroquinazolin-8-yl)ethyl)amino)-N-(methylsulfonyl) picolinamide], in that order: 5.30 to 6.00 and greater than 6.60.
The like results for `Cc1cc([C@@H](C)Nc2ccc(Cl)nc2C(=O)NS(C)(=O)=O)c2nc(N3C[C@H]4C[C@@H]3CN4c3ncc(Cl)cn3)n(C)c(=O)c2c1` [Compound 666, 6-chloro-3-(((R)-1-(2-((1R,4R)-5-(5-chloropyrimidin-2-yl)-2,5-diazabicyclo [2.2.1]heptan-2-yl)-3,6-dimethyl-4-oxo-3,4-dihydroquinazolin-8-yl)ethyl)amino)-N-(methylsulfonyl) picolinamide] were, in that order, no more than 5.30 and 6.30 to 6.60.
The like results for `Cc1cc([C@@H](C)Nc2ccc(Cl)nc2C(=O)NS(C)(=O)=O)c2nc(N3C[C@@H]4C[C@H]3CN4c3ncc(Cl)cn3)n(C)c(=O)c2c1` [Compound 667, 6-chloro-3-(((R)-1-(2-((1S,4S)-5-(5-chloropyrimidin-2-yl)-2,5-diazabicyclo [2.2.1]heptan-2-yl)-3,6-dimethyl-4-oxo-3,4-dihydroquinazolin-8-yl)ethyl)amino)-N-(methylsulfonyl) picolinamide] were, in that order, no more than 5.30 and 6.00 to 6.30.
In the case of `Cc1cc([C@@H](C)Nc2ccc(Cl)nc2C(=O)NS(C)(=O)=O)c2nc(N3C[C@H]4C[C@@H]3CN4c3ncc(F)cn3)n(C)c(=O)c2c1` [Compound 668, 6-chloro-3-(((R)-1-(2-((1R,4R)-5-(5-fluoropyrimidin-2-yl)-2,5-diazabicyclo [2.2.1]heptan-2-yl)-3,6-dimethyl-4-oxo-3,4-dihydroquinazolin-8-yl)ethyl)amino)-N-(methylsulfonyl) picolinamide], the figures for the pIC50 in assay [1] and in assay [2] were no more than 5.30 and 6.30 to 6.60, respectively.
As to `Cc1cc([C@@H](C)Nc2ccc(Cl)nc2C(=O)NS(C)(=O)=O)c2nc(N3C[C@@H]4C[C@H]3CN4c3ncc(F)cn3)n(C)c(=O)c2c1` [Compound 669, 6-chloro-3-(((R)-1-(2-((1S,4S)-5-(5-fluoropyrimidin-2-yl)-2,5-diazabicyclo [2.2.1]heptan-2-yl)-3,6-dimethyl-4-oxo-3,4-dihydroquinazolin-8-yl)ethyl)amino)-N-(methylsulfonyl) picolinamide], the pIC50 is no more than 5.30 in assay [1] and 6.30 to 6.60 in assay [2].
The like results for `Cc1cc([C@@H](C)Nc2ccc(Cl)nc2C(=O)NS(C)(=O)=O)c2nc(N3CC[C@@H](Oc4cnc(C)cn4)C3)n(C)c(=O)c2c1` [Compound 672, 6-chloro-3-(((R)-1-(3,6-dimethyl-2-((R)-3-((5-methylpyrazin-2-yl)oxy)pyrrolidin-1-yl)-4-oxo-3,4-dihydroquinazolin-8-yl)ethyl)amino)-N-(methylsulfonyl) picolinamide] were, in that order, 5.30 to 6.00 and greater than 6.60.
With `Cc1cc([C@@H](C)Nc2ccc(Cl)nc2C(=O)NS(C)(=O)=O)c2nc(N3CCC4(CCc5cn(C)nc54)CC3)n(C)c(=O)c2c1` [Compound 673, (R)-6-chloro-3-((1-(3,6-dimethyl-2-(2-methyl-4,5-dihydro-2H-spiro [cyclopenta[c]pyrazole-6,4′-piperidin]-1′-yl)-4-oxo-3,4-dihydroquinazolin-8-yl)ethyl)amino)-N-(methylsulfonyl) picolinamide], the pIC50 was no more than 5.30 in assay [1] and 6.30 to 6.60 in assay [2].
The like results for `Cc1cc([C@@H](C)Nc2ccc(Cl)nc2C(=O)NS(C)(=O)=O)c2nc(N3Cc4cccc(-c5cncn5C)c4C3)n(C)c(=O)c2c1` [Compound 674, (R)-6-chloro-3-((1-(3,6-dimethyl-2-(4-(1-methyl-1H-imidazol-5-yl)isoindolin-2-yl)-4-oxo-3,4-dihydroquinazolin-8-yl)ethyl)amino)-N-(methylsulfonyl) picolinamide] were, in that order, no more than 5.30 and 6.30 to 6.60.
For `Cc1cc([C@@H](C)Nc2ccc(Cl)nc2C(=O)NS(C)(=O)=O)c2nc(N3CCC(c4nn(C)c5ccccc45)CC3)n(C)c(=O)c2c1` [Compound 675, (R)-6-chloro-3-((1-(3,6-dimethyl-2-(4-(1-methyl-1H-indazol-3-yl)piperidin-1-yl)-4-oxo-3,4-dihydroquinazolin-8-yl)ethyl)amino)-N-(methylsulfonyl) picolinamide], in that order: no more than 5.30 and 6.30 to 6.60.
The like results for `Cc1cc([C@@H](C)Nc2ccc(Cl)nc2C(=O)NS(C)(=O)=O)c2nc(N3CCC(n4ccccc4=O)CC3)n(C)c(=O)c2c1` [Compound 677, (R)-6-chloro-3-((1-(3,6-dimethyl-4-oxo-2-(4-(2-oxopyridin-1(2H)-yl)piperidin-1-yl)-3,4-dihydroquinazolin-8-yl)ethyl)amino)-N-(methylsulfonyl) picolinamide] were, in that order, no more than 5.30 and 6.30 to 6.60.
Turning to `Cc1cc([C@@H](C)Nc2ccc(Cl)nc2C(=O)NS(C)(=O)=O)c2nc(N3CCC(c4cccc5c4cnn5C)CC3)n(C)c(=O)c2c1` [Compound 678, (R)-6-chloro-3-((1-(3,6-dimethyl-2-(4-(1-methyl-1H-indazol-4-yl)piperidin-1-yl)-4-oxo-3,4-dihydroquinazolin-8-yl)ethyl)amino)-N-(methylsulfonyl) picolinamide], the pIC50 was no more than 5.30 in assay [1] and 6.30 to 6.60 in assay [2].
The like results for `Cc1cc([C@@H](C)Nc2ccc(Cl)nc2C(=O)NS(C)(=O)=O)c2nc(N3CCC(c4ccc(F)cn4)C3)n(C)c(=O)c2c1` (stereo partly drawn) [Compound 679, 6-chloro-3-(((1R)-1-(2-(3-(5-fluoropyridin-2-yl)pyrrolidin-1-yl)-3,6-dimethyl-4-oxo-3,4-dihydroquinazolin-8-yl)ethyl)amino)-N-(methylsulfonyl) picolinamide] were, in that order, 5.30 to 6.00 and 6.30 to 6.60.
For `Cc1cc([C@@H](C)Nc2ccc(Cl)nc2C(=O)NS(C)(=O)=O)c2nc(N3CCN4C[C@H](n5cc(C)cn5)C[C@H]4C3)n(C)c(=O)c2c1` [Compound 680, 6-chloro-3-(((R)-1-(3,6-dimethyl-2-((7R,8aS)-7-(4-methyl-1H-pyrazol-1-yl)hexahydropyrrolo[1,2-a]pyrazin-2(1H)-yl)-4-oxo-3,4-dihydroquinazolin-8-yl)ethyl)amino)-N-(methylsulfonyl) picolinamide], in that order: no more than 5.30 and 6.30 to 6.60.
For `Cc1cc([C@@H](C)Nc2ccc(Cl)nc2C(=O)NS(C)(=O)=O)c2nc(N3CCC(n4cc(C(F)(F)F)cn4)CC3)n(C)c(=O)c2c1` [Compound 681, (R)-6-chloro-3-((1-(3,6-dimethyl-4-oxo-2-(4-(4-(trifluoromethyl)-1H-pyrazol-1-yl)piperidin-1-yl)-3,4-dihydroquinazolin-8-yl)ethyl)amino)-N-(methylsulfonyl) picolinamide], in that order: no more than 5.30 and 6.30 to 6.60.

The pIC50 is the negative decadic logarithm of the IC50, by convention in mol/L.
